Laboratory results published in patent publication US9212146B2, “Substituted pyridazinones for the treatment of tumors” (SHANGHAI INSTITUTE OF MATERIA MEDICA, CHINESE ACADEMY OF …, priority 2008, dated 2015).
Like-named read-outs stand apart in the source and are kept apart here.

Test system: human hepatoma cell line Bel-7402
Experiment: SRB proliferation assay, Bel-7402
Assay type: cell-based
Conditions: BEL-7402 cultivated in vitro, given as bounds, read-out: The Inhibition Activities for Human Liver Cancer Cells BEL-7402 (IC50)
Protocol: Protocol: the antineoplasmic activities in vitro of the compounds were assayed by a Sulforhodamine B (SRB) protocol. Tumor cells were cultivated at 37 under 5% CO2 in a RPMI 1640 medium or a DMEM medium (Gibco) containing 10% fetal bovine serum. Tumor cells were inoculated on a 96-well plate with a concentration of 0.4-1.0×10^4 cells per well according to the cell types. 24 hours later, the target compounds diluted 10 times were added, each compound having at least 5 concentrations. After treated by the compounds for 72 hours, the culture media were discarded, and the cells were fixed by 10% cold trichloroacetic acid, and then stained by Sulforhodamine B (SRB) solution. The uncombined SRB was washed off, and the SRB combined with protein was dissolved with Tris. OD values were recorded at 515 nm on an ELISA Reader, and the cell growth inhibition rate was calculated according to following equation: Inhibition rate=(ODcontrol−ODexperimental)/ODcontrol×100%
IC50 (50% inhibitory concentration) was calculated by using Logit method based on the inhibition rates at various concentration, and the results are shown in tables 1 and 2.
The following cell lines were used: human hepatocarcinoma cell line […]; ovarian cancer cell line SK-OV-3; human breast cancer cell line MDA-MB-231; human renal carcinoma cell line A498; colon adenocarcinoma cell line HT-29; non-small cell lung cancer cell line NCI-H460; lung adenocarcinoma cell line A549; human colon cancer cell line SW-620; human hepatoma cell line Bel-7402; human breast carcinoma cell line SK-BR-3; and human umbilical vein endothelial cells (HUVEC).

Structure (SMILES) | IC50 (Homo sapiens, Bel-7402, 72 h) [nM] | further results
CN(C)COc1ccc(-c2ccc(=O)[nH]n2)cc1C(F)(F)F [YHHU-501] | < 100 | –
CC(C)C(Oc1ccc(-c2ccc(=O)[nH]n2)cc1C(F)(F)F)C(C)C [YHHU-502] | < 100 | –
O=c1ccc(-c2ccc(OC3CCCC3)c(C(F)(F)F)c2)n[nH]1 [YHHU-503] | < 100 | –
CCOC(=O)CSc1ccc(-c2ccc(=O)[nH]n2)cc1C(F)(F)F [YHHU-532] | < 100 | –
COc1ccc(-c2ccc(=O)[nH]n2)cc1C(F)(F)F [YHHU-546] | – | IC50 (72 hours): < 100 nM
O=c1ccc(-c2ccc(CO)c(C(F)(F)F)c2)n[nH]1 [YHHU-574] | < 100 | –
O=c1ccc(-c2ccc(CCN3CCCCC3)c(C(F)(F)F)c2)n[nH]1 [YHHU-575] | < 100 | –
CCOc1ccc(-c2ccc(=O)[nH]n2)cc1C(F)(F)F [YHHU-578] | < 100 | –
O=c1ccc(-c2ccc(OCCBr)c(C(F)(F)F)c2)n[nH]1 [YHHU-579] | < 100 | –
O=c1ccc(-c2ccc(O)c(C(F)(F)F)c2)n[nH]1 [YHHU-580] | < 100 | –
Cc1ccc(-c2ccc(=O)[nH]n2)cc1C(F)(F)F [YHHU-581] | < 100 | –
O=c1ccc(-c2ccc(OCCOCCO)c(C(F)(F)F)c2)n[nH]1 [YHHU-582] | < 100 | –
O=c1ccc(-c2ccc(CCN3CCOCC3)c(C(F)(F)F)c2)n[nH]1 [YHHU-585] | < 100 | –
O=c1ccc(-c2ccc(OCCC(F)(F)F)c(C(F)(F)F)c2)n[nH]1 [YHHU-586] | < 100 | –
CCSc1ccc(-c2ccc(=O)[nH]n2)cc1C(F)(F)F [YHHU-589] | < 100 | –
CN1CCCC(COc2ccc(-c3ccc(=O)[nH]n3)cc2C(F)(F)F)C1 (stereo not shown) [YHHU-590] | < 100 | –
O=c1ccc(-c2ccc(OC34CC5CCC(C3)C(C5)C4)c(C(F)(F)F)c2)n[nH]1 (stereo not shown) [YHHU-592] | < 100 | –
CC1CCC(C(C)C)C(Oc2ccc(-c3ccc(=O)[nH]n3)cc2C(F)(F)F)C1 (stereo not shown) [YHHU-595] | < 100 | –
CC(Oc1ccc(-c2ccc(=O)[nH]n2)cc1C(F)(F)F)N1CCCCC1 (stereo not shown) [YHHU-597] | < 100 | –
O=c1ccc(-c2ccc(OC3CCCCCC3)c(C(F)(F)F)c2)n[nH]1 [YHHU-598] | < 100 | –
CN(C)c1ccc(-c2ccc(=O)[nH]n2)cc1C(F)(F)F [YHHU-647] | < 10 | –
O=c1ccc(-c2ccc(Nc3ccccc3)c(C(F)(F)F)c2)n[nH]1 [YHHU-658] | < 100 | –
O=c1ccc(-c2ccc(NCc3ccccc3)c(C(F)(F)F)c2)n[nH]1 [YHHU-659] | < 100 | –

Structure (SMILES) | IC50 (Homo sapiens, Bel-7402, 72 h) [nM] | further results
O=C(O)[C@@H]1CC(O)CN1c1ccc(-c2ccc(=O)[nH]n2)cc1C(F)(F)F (stereo partly shown) [YHHU-666] | < 1000 | –
O=C1CCCN1c1ccc(-c2ccc(=O)[nH]n2)cc1C(F)(F)F [YHHU-667] | < 100 | –
O=C1CSC(=S)N1c1ccc(-c2ccc(=O)[nH]n2)cc1C(F)(F)F [YHHU-668] | < 1000 | –
C[C@@H]1CN(c2ccc(-c3ccc(=O)[nH]n3)cc2C(F)(F)F)C[C@H](C)O1 [YHHU-669] | < 10 | –
O=c1ccc(-c2ccc(N3CCSC3)c(C(F)(F)F)c2)n[nH]1 [YHHU-670] | < 1000 | –
CCOC(=O)C1CCCN(c2ccc(-c3ccc(=O)[nH]n3)cc2C(F)(F)F)C1 (stereo not shown) [YHHU-671] | < 10 | –
O=C1CCN(c2ccc(-c3ccc(=O)[nH]n3)cc2C(F)(F)F)CC1 [YHHU-672] | < 100 | –
O=C1CCC(=O)N1c1ccc(-c2ccc(=O)[nH]n2)cc1C(F)(F)F [YHHU-673] | < 1000 | –
O=C1CSC(=O)N1c1ccc(-c2ccc(=O)[nH]n2)cc1C(F)(F)F [YHHU-674] | < 1000 | –
C[C@H]1CN(c2ccc(-c3ccc(=O)[nH]n3)cc2C(F)(F)F)CCN1 [YHHU-675] | < 10 | –
CN(C)[C@H]1CCN(c2ccc(-c3ccc(=O)[nH]n3)cc2C(F)(F)F)C1 [YHHU-676] | < 10 | –
O=c1ccc(-c2ccc(N3CCNCC3)c(C(F)(F)F)c2)n[nH]1 [YHHU-677] | < 100 | –
CC(C)(C)OC(=O)N1CCN(c2ccc(-c3ccc(=O)[nH]n3)cc2C(F)(F)F)CC1 [YHHU-678] | < 10 | –
O=c1ccc(-c2ccc(N3CCC(CCO)CC3)c(C(F)(F)F)c2)n[nH]1 [YHHU-679] | < 100 | –
CN(CCO)c1ccc(-c2ccc(=O)[nH]n2)cc1C(F)(F)F [YHHU-681] | < 1000 | –
C[C@@H]1CN(c2ccc(-c3ccc(=O)[nH]n3)cc2C(F)(F)F)CCN1 [YHHU-682] | < 10 | –
CN(C)[C@@H]1CCN(c2ccc(-c3ccc(=O)[nH]n3)cc2C(F)(F)F)C1 [YHHU-683] | < 100 | –
O=c1ccc(-c2ccc(NC3CCCCC3)c(C(F)(F)F)c2)n[nH]1 [YHHU-715] | – | IC50 (72 hours): < 10000 nM
CC1CN1c1ccc(-c2ccc(=O)[nH]n2)cc1C(F)(F)F (stereo not shown) [YHHU-748] | – | IC50 (Homo sapiens, 72 hours): < 10 nM
O=c1ccc(-c2ccc(NC3CCCCC3)c(C(F)(F)F)c2)n[nH]1 [YHHU-757] | – | IC50 (72 hours): < 10 nM
COc1ccc(-c2ccc(=O)[nH]n2)cc1C(F)(F)F [YHHU-762] | – | IC50 (72 hours): < 10 nM
O=c1ccc(-c2ccc(OCCN3CC3)c(C(F)(F)F)c2)n[nH]1 [YHHU-771] | – | IC50 (Homo sapiens, 72 hours): < 100 nM

Further lines, with some results ahead:

IC50 (Homo sapiens, Bel-7402, 72 h) [nM] | Structure (SMILES) | further results
< 10 | O=c1ccc(-c2ccc(N3CCN(CCO)CC3)c(C(F)(F)F)c2)n[nH]1 [YHHU-685] | –
< 10 | CC(C)N(c1ccc(-c2ccc(=O)[nH]n2)cc1C(F)(F)F)C(C)C [YHHU-688] | –
< 100 | O=c1ccc(-c2ccc(NC3CCCC3)c(C(F)(F)F)c2)n[nH]1 [YHHU-689] | –
< 100 | CCOC(=O)C1CCN(c2ccc(-c3ccc(=O)[nH]n3)cc2C(F)(F)F)CC1 [YHHU-693] | –
< 100 | CSc1ccc(-c2ccc(=O)[nH]n2)cc1C(F)(F)F [YHHU-694] | –
< 100 | O=c1ccc(-c2ccc(NCC3CCCCC3)c(C(F)(F)F)c2)n[nH]1 [YHHU-696] | –
< 10000 | O=c1ccc(-c2ccc(SCCO)c(C(F)(F)F)c2)n[nH]1 [YHHU-700] | –
< 10 | CN(C)Cc1ccc(-c2ccc(=O)[nH]n2)cc1C(F)(F)F [YHHU-701] | –
< 10000 | O=c1ccc(-c2ccc(C#Cc3ccc(C(F)(F)F)cc3)c(C(F)(F)F)c2)n[nH]1 [YHHU-702] | –
< 10000 | O=c1ccc(-c2ccc(-c3ccccc3)c(C(F)(F)F)c2)n[nH]1 [YHHU-703] | –
< 10000 | O=c1ccc(-c2ccc(-n3ccnc3)c(C(F)(F)F)c2)n[nH]1 [YHHU-706] | –
< 10000 | O=c1ccc(-c2ccc(OC(F)(F)F)c(C(F)(F)F)c2)n[nH]1 [YHHU-707] | –
< 10000 | O=c1ccc(-c2ccc(-c3cccnc3)c(C(F)(F)F)c2)n[nH]1 [YHHU-709] | –
< 10000 | O=c1ccc(-c2ccc(C(F)(F)F)c(C(F)(F)F)c2)n[nH]1 [YHHU-710] | –
< 1000 | O=c1ccc(-c2ccc(NC3CCC(O)CC3)c(C(F)(F)F)c2)n[nH]1 (stereo not shown) [YHHU-711] | –
< 1000 | O=c1ccc(-c2ccc(NC3CCCC(O)C3)c(C(F)(F)F)c2)n[nH]1 (stereo not shown) [YHHU-712] | –
< 1000 | O=c1ccc(-c2ccc(OCC3CC3)c(C(F)(F)F)c2)n[nH]1 [YHHU-713] | –
< 10000 | O=c1ccc(-c2ccc(OCc3ccccc3)c(C(F)(F)F)c2)n[nH]1 [YHHU-714] | –
< 10000 | O=c1ccc(-c2ccc(NC3CCCCC3O)c(C(F)(F)F)c2)n[nH]1 (stereo not shown) [YHHU-716] | –

IC50 (Homo sapiens, Bel-7402, 72 h) [nM] | Structure (SMILES) | further results
> 1000 | Cc1ccc(Sc2ccc(-c3ccc(=O)[nH]n3)cc2C(F)(F)F)cc1 [YHHU-717] | –
< 10000 | O=c1ccc(-c2ccc(N3CC4CCCC4C3)c(C(F)(F)F)c2)n[nH]1 (stereo not shown) [YHHU-718] | –
> 1000 | CN(C)CCNc1ccc(-c2ccc(=O)[nH]n2)cc1C(F)(F)F [YHHU-745] | –
> 1000 | CN(C)CCN(C)c1ccc(-c2ccc(=O)[nH]n2)cc1C(F)(F)F [YHHU-746] | –
< 10 | O=c1ccc(-c2ccc(N3CCCCCC3)c(C(F)(F)F)c2)n[nH]1 [YHHU-747] | –
< 10 | CC(O)C1CCN(c2ccc(-c3ccc(=O)[nH]n3)cc2C(F)(F)F)CC1 (stereo not shown) [YHHU-751] | –
< 100 | O=c1ccc(-c2ccc(N3CC(O)C3)c(C(F)(F)F)c2)n[nH]1 [YHHU-752] | –
< 100 | O=c1ccc(-c2ccc(N3CCCC(O)C3)c(C(F)(F)F)c2)n[nH]1 (stereo not shown) [YHHU-753] | –
< 10 | CNc1ccc(-c2ccc(=O)[nH]n2)cc1C(F)(F)F [YHHU-758] | –
> 100 | O=c1ccc(-c2ccc(NCCO)c(C(F)(F)F)c2)n[nH]1 [YHHU-760] | –
< 10 | CC(C)Nc1ccc(-c2ccc(=O)[nH]n2)cc1C(F)(F)F [YHHU-761] | –
< 100 | O=c1ccc(-c2ccc(N3CCCCC3CO)c(C(F)(F)F)c2)n[nH]1 (stereo not shown) [YHHU-763] | –
< 100 | O=C(O)C1CCCN(c2ccc(-c3ccc(=O)[nH]n3)cc2C(F)(F)F)C1 (stereo not shown) [YHHU-765] | –
< 100 | O=c1ccc(-c2ccc(N3CCC(O)C3)c(C(F)(F)F)c2)n[nH]1 (stereo not shown) [YHHU-766] | –
< 100 | CCOC(=O)C1CCCN1c1ccc(-c2ccc(=O)[nH]n2)cc1C(F)(F)F (stereo not shown) [YHHU-768] | –
< 1000 | CCOC(=O)CCNc1ccc(-c2ccc(=O)[nH]n2)cc1C(F)(F)F [YHHU-769] | –
< 100 | O=c1ccc(-c2ccc(OCCN3CCCC3)c(C(F)(F)F)c2)n[nH]1 [YHHU-770] | –
< 100 | CC(C)CCOc1ccc(-c2ccc(=O)[nH]n2)cc1C(F)(F)F [YHHU-772] | –
